Assay results taken from PMC4579270, “Identification and Characterization of an Irreversible Inhibitor of CDK2” (Chemistry & Biology, 2015).

How the values were obtained:
Experiment in all cases: Dundee protein kinase screen
Type in all cases: biochemical
Aurora B = Aurora B (Homo sapiens, UniProt Q96GD4); details: read-out: %Remaining activity at 1µM NU6300
Description: (§1) Prior to determining its cellular activity, we carried out a screen to assess its selectivity against a panel of 131 protein kinases under conditions that would not distinguish between a reversible or irreversible mode of action. […] These 13 kinases and 29 additional kinases, selected for their known sensitivity to other inhibitors within the purine series, were then tested in a modified screening format in which the assay was repeated following a 4-hr pre-incubation (Table S3B). […] However, conformational flexibility around the active site may promote such an interaction with a residue from another part of the structure ([Martin et al., 2012]).
(§2) Table S3, Related to Figure 4. NCL-0006300 protein kinase selectivity. (A) NU6300 was tested at a single concentration of 1µM against 131 protein kinases present in a Dundee protein kinase screen (Bain et al., 2007). Values given are % activity remaining and are the average of duplicate measurements: 0-25% (red), 26-50% (yellow), 51-80% (black) and above 81% (green). The kinase domain sequences (as defined by UniProt) of […]
(§3) have a lysine residue at a position close to CDK2 Lys88 or Lys89. However, in the structure of tyrosine-protein kinase BTK (PDB ID: 3GEN) the residue equivalent to CDK2 Asp86 is Cys481 and therefore there is the potential for a covalent adduct to be formed through this side chain. […]

BTK = BTK (Homo sapiens, UniProt Q06187); details: read-out: %Remaining activity at 1µM NU6300
Sequence of BTK (Q06187 whole entry): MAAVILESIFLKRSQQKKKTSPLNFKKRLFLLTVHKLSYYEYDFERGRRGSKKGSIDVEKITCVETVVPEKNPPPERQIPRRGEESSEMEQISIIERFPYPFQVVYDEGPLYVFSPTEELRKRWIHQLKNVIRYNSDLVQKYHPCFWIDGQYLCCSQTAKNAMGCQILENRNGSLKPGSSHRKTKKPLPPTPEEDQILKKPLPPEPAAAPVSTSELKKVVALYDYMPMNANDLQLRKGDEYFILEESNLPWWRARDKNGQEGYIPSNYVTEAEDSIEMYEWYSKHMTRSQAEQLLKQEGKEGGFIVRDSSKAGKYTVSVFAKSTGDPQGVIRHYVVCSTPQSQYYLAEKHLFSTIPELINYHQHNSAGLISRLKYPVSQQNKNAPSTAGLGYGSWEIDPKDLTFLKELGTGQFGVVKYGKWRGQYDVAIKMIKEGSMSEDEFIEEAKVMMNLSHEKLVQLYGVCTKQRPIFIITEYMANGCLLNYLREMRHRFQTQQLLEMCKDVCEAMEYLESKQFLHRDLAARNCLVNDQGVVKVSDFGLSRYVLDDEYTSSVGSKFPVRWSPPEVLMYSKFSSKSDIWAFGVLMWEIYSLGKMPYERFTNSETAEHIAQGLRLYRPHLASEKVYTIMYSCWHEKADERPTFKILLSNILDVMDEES
Description: as §1, §2, §3

MAPKAP-K2 = MAPKAP-K2 (Homo sapiens, UniProt P49137); details: MAPKAP-K2, 1µM; read-out: %Remaining activity at 1µM NU6300
Sequence of MAPKAP-K2 (P49137 whole entry): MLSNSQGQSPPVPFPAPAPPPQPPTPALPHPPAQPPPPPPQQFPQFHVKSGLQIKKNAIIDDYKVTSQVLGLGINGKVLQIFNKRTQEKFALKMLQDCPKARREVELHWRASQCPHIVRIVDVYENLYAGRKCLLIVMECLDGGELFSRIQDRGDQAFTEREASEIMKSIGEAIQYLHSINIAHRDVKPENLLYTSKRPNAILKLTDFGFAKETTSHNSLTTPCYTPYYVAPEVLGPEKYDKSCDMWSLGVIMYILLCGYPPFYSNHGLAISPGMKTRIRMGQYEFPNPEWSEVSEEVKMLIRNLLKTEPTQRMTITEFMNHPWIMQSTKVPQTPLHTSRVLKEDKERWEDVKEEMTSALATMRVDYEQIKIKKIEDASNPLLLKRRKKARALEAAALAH
Description: as §1, §2, §3

IKKe = IKKe (Homo sapiens, UniProt Q14164); details: read-out: %Remaining activity at 1µM NU6300
Description: as §1, §2, §3

EIF2AK3 = EIF2AK3 (Homo sapiens, UniProt Q9NZJ5); details: EIF2AK3, 1µM; read-out: %Remaining activity at 1µM NU6300
Description: as §1, §2, §3

GCK = GCK (Homo sapiens, UniProt Q12851); details: read-out: %Remaining activity at 1µM NU6300
Sequence of GCK (Q12851 whole entry): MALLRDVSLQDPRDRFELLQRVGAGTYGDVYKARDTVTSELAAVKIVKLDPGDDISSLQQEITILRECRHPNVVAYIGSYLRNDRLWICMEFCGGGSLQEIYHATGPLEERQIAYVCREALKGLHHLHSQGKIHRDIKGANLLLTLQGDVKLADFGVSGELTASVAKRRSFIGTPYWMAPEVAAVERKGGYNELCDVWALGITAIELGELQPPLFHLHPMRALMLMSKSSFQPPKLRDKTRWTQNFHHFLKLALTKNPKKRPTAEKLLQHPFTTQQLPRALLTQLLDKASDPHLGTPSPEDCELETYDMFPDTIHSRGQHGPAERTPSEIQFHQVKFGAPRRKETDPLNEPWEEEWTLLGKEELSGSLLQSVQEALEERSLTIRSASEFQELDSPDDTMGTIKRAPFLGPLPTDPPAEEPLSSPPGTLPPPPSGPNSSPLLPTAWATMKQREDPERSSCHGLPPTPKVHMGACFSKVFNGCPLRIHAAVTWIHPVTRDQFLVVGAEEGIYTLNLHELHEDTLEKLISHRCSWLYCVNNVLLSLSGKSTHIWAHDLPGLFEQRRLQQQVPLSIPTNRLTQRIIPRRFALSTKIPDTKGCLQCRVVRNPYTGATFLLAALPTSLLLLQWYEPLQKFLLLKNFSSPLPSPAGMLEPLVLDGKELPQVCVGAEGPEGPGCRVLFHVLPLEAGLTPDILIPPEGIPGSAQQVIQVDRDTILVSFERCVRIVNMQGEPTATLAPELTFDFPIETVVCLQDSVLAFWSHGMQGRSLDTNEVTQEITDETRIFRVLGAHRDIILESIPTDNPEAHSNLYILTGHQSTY
Description: as §1, §2, §3

LKB1 = LKB1 (Homo sapiens, UniProt Q15831); details: LKB1, 1µM; read-out: %Remaining activity at 1µM NU6300
Sequence of LKB1 (Q15831 whole entry): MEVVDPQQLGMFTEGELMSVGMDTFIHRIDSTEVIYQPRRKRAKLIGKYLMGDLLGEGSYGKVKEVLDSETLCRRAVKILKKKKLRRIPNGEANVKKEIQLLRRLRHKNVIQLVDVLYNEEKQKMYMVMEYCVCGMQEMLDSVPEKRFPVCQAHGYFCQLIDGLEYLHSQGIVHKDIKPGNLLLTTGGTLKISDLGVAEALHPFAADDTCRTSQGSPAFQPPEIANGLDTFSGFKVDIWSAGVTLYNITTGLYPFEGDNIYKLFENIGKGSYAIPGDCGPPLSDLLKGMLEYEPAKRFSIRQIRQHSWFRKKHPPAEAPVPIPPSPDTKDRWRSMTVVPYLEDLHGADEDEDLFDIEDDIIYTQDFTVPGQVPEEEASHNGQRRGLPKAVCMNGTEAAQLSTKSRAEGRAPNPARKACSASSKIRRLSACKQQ
Sequence of LKB1 (Q7RTN6 whole entry partner): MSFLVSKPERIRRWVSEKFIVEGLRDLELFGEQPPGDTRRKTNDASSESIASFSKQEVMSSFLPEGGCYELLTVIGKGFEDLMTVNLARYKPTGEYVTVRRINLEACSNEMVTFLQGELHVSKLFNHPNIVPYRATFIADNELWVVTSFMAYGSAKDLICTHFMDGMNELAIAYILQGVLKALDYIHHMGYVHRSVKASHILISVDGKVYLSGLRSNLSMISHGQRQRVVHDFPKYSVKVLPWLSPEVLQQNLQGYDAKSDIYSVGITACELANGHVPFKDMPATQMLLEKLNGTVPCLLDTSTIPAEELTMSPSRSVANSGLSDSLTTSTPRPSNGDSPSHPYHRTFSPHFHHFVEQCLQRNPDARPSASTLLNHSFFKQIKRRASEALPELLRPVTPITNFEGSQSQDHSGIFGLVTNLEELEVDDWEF
Sequence of LKB1 (Q9Y376 whole entry partner): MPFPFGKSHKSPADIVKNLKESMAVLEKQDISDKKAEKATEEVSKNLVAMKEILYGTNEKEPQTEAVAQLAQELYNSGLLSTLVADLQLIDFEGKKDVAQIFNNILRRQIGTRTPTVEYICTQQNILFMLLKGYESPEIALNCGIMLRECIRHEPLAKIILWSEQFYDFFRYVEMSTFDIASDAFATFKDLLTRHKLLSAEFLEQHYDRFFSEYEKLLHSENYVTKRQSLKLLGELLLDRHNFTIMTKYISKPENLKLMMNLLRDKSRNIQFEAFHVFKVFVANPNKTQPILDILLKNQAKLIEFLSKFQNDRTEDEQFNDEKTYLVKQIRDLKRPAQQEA
Description: as §1, §2, §3

CHK2 = CHK2 (Homo sapiens, UniProt O96017); details: CHK2, 1µM; read-out: %Remaining activity at 1µM NU6300
Description: as §1, §2, §3

CK1δ = CK1δ (Homo sapiens, UniProt P48730); details: read-out: %Remaining activity at 1µM NU6300
Description: as §1, §2, §3

BRSK2 = BRSK2 (Homo sapiens, UniProt Q8IWQ3); details: BRSK2, 1µM; read-out: %Remaining activity at 1µM NU6300
Description: as §1, §2, §3

MKK1 = MKK1 (Homo sapiens, UniProt Q02750); details: MKK1, 1µM; read-out: %Remaining activity at 1µM NU6300
Description: as §1, §2, §3

MAPKAP-K3 = MAPKAP-K3 (Homo sapiens, UniProt Q16644); details: MAPKAP-K3, 1µM; read-out: %Remaining activity at 1µM NU6300
Sequence of MAPKAP-K3 (Q16644 whole entry): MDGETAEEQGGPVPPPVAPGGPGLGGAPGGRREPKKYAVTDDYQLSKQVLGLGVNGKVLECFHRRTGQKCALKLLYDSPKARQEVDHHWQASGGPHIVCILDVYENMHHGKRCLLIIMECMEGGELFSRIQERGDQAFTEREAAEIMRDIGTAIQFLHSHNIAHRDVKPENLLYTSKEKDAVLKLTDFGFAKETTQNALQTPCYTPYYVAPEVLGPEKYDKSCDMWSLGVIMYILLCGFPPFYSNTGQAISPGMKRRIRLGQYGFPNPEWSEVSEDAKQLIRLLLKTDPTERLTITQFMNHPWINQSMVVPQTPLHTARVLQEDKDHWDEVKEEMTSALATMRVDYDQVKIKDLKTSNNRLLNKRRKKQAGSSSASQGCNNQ
Description: as §1, §2, §3

MARK1 = MARK1 (Homo sapiens, UniProt Q9P0L2); details: MARK1, 1µM; read-out: %Remaining activity at 1µM NU6300
Description: as §1, §2, §3

MLK1 = MLK1 (Homo sapiens, UniProt P80192); details: MLK1, 1µM; read-out: %Remaining activity at 1µM NU6300
Description: as §1, §2, §3

EPH-A4 = EPH-A4 (Homo sapiens, UniProt P54764); details: EPH-A4, 1µM; read-out: %Remaining activity at 1µM NU6300
Description: as §1, §2, §3

DYRK2 = DYRK2 (Homo sapiens, UniProt Q92630); details: DYRK2, 1µM; read-out: %Remaining activity at 1µM NU6300
Sequence of DYRK2 (Q92630 whole entry): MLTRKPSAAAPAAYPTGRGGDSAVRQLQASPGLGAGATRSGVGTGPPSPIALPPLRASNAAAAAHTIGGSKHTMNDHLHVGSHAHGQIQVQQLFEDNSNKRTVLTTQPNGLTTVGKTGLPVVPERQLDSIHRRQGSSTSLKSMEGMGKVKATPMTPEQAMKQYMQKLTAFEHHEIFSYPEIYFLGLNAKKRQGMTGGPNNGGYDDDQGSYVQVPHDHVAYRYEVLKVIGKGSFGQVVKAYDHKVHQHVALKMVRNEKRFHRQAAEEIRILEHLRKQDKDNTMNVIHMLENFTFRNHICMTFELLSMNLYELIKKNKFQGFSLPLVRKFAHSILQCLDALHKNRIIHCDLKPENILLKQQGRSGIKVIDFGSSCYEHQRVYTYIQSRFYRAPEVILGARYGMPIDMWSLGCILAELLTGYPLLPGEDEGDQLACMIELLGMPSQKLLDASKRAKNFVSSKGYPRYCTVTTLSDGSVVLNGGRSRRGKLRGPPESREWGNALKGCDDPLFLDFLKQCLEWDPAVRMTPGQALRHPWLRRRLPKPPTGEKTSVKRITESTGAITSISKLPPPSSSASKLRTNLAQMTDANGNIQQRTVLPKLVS
Description: as §1, §2, §3

MARK2 = MARK2 (Homo sapiens, UniProt Q7KZI7); details: MARK2, 1µM; read-out: %Remaining activity at 1µM NU6300
Description: as §1, §2, §3

CK1γ2 = CK1γ2 (Homo sapiens, UniProt P78368); details: CK1γ2, 1µM; read-out: %Remaining activity at 1µM NU6300
Sequence of CK1γ2 (P78368 whole entry): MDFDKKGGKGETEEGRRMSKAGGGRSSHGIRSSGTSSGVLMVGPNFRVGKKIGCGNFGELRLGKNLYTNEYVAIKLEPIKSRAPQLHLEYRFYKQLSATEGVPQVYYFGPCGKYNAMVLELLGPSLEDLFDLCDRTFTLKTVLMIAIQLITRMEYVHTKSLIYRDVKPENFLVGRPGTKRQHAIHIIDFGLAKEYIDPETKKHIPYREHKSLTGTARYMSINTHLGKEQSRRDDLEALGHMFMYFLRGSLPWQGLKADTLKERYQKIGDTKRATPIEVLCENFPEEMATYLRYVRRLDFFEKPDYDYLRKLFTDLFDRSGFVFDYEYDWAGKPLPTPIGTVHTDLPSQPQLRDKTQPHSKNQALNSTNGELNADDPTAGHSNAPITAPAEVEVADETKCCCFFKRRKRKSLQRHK
Description: as §1, §2, §3

CHK1 = target: T1, CHK1 (Homo sapiens, UniProt O14757); details: CHK1, 1µM; read-out: %Remaining activity at 1µM NU6300
T1 sequence (O14757 1-476): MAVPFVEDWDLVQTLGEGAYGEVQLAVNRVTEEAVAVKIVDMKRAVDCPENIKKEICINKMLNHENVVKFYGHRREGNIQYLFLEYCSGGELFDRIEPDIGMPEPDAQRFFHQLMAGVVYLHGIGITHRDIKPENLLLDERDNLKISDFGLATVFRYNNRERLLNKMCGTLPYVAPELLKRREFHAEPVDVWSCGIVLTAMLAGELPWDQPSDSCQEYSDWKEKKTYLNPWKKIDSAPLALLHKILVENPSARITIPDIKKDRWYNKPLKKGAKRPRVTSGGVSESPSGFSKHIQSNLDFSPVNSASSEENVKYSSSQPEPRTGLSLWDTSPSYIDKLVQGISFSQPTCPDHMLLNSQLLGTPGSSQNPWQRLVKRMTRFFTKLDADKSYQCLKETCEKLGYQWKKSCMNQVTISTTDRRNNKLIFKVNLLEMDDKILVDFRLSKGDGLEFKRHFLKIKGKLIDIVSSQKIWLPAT
Description: as §1, §2, §3

Sequence of Aurora B (Q96GD4 whole entry): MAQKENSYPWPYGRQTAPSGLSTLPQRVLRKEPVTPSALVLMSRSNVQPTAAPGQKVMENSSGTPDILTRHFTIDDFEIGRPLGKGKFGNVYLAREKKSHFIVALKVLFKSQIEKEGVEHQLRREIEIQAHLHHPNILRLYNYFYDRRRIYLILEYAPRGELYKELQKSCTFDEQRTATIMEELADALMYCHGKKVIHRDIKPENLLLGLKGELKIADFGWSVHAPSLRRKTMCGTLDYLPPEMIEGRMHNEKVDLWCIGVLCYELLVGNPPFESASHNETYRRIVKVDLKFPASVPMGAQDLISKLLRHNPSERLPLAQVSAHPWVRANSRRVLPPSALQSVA

C=CS(=O)(=O)c1ccc(Nc2nc(OCC3CCCCC3)c3nc[nH]c3n2)cc1 [NU6300, 6-(cyclohexylmethoxy)-N-(4-(vinylsulfonyl)phenyl)-9H-purin-2-amine]
remaining activity at 1 µM (Aurora B): 26%
remaining activity at 1 µM (BTK): 17%
remaining activity at 1 µM (MAPKAP-K2): 93%
remaining activity at 1 µM (IKKe): 68%
remaining activity at 1 µM (EIF2AK3): 83%
remaining activity at 1 µM (GCK): 26%
remaining activity at 1 µM (LKB1): 59%
remaining activity at 1 µM (CHK2): 39%
remaining activity at 1 µM (CK1δ): 83%
remaining activity at 1 µM (BRSK2): 60%
remaining activity at 1 µM (MKK1): 58%
remaining activity at 1 µM (MAPKAP-K3): 88%
remaining activity at 1 µM (MARK1): 47%
remaining activity at 1 µM (MLK1): 8%
remaining activity at 1 µM (EPH-A4): 69%
remaining activity at 1 µM (DYRK2): 78%
remaining activity at 1 µM (MARK2): 69%
remaining activity at 1 µM (CK1γ2): 79%
remaining activity at 1 µM (CHK1): 38%
